{
  "source": "patent EP0114577A1",
  "about": "“New pharmaceutical composition” (MAGIS FARMACEUTICI S.p.A., priority 1983, dated 1984)",
  "assay": "Serum levels of radioactivity after administration of 14C-CDPC (liposomal suspension vs aqueous solution) to rats",
  "conditions": "rat, in vivo, 200 mg/kg",
  "from_the_text": "Surprising results which are obtained orally administering carried-by-liposomes CDPC instead of utilizing hitherto known pharmaceutical compositions for oral administration are confirmed by data obtained by carrying out tests hereinbelow described. During the tests as pharmaceutical composition containing carried-by-liposomes CDPC, CDPC carried by means of a liposome having purified phosphatidylcholine from soybean as hydrophobic phase was utilized; said pharmaceutical composition will be called hereinafter Lip. CDPC for the sake of brevity. Moreover, during the hereinbelow describ ed tests, a marked CDPC was utilized having an atom of ^14C introduced into the methyl group of the cholinic side of the molecule. The radioactivity resulted to be about 0.1 µ Curie/mg pure CDPC.\nThe suspension of Lip. CDPC containing ^14C-CDPC, which was obtained as described in Example No. 1, and a ' reference aqueous solution of ^14C-CDPC were administered by gavage to rats of average weight of 200 g at the doses of 200 mg/Kg (referred to pure CDPC).\nBlood abstractions were carried out at various intervals of time and, 24 hours after the start of test, the animals were sacrificed. Amounts of absorbed active ingredient were calculated from radioactivity measures on serum; said amounts, as reported in following Tables (1 - 2), were higher on the average in tests carried out employing Lip. CDPC in comparison with controls with pure CDPC in aqueous solution. It is apparent from the analysis of Tables that, in the described experimental conditions, there is a valuable absorption of CDPC after oral administration. The amount of said absorption and pertinent hematic concentrations are remarkably higher when Lip. CDPC, which is object of the present invention, is used: for example at the 6th hour the serum concentration of CDPC for Lip. CDPC was much higher than concentration found for CDPC administered in aqueous solution.",
  "data": [
    {"compound": "C[N+](C)(C)CCOP(=O)(O)OP(=O)([O-])OC[C@H]1O[C@@H](n2ccc(N)nc2=O)[C@H](O)[C@@H]1O", "note": "[CDPC, cytidine diphosphate choline ester]", "values": [
      {"measurement": "Serum concentration", "setting": "0 min", "result": 0, "unit": "CPM x 10^-3"},
      {"measurement": "Serum concentration", "setting": "60 min", "result": 0.3, "unit": "CPM x 10^-3"},
      {"measurement": "Serum concentration", "setting": "120 min", "result": 1, "unit": "CPM x 10^-3"},
      {"measurement": "Serum concentration", "setting": "300 min", "result": 2.6, "unit": "CPM x 10^-3"},
      {"measurement": "Serum concentration", "setting": "600 min", "result": 4, "unit": "CPM x 10^-3"},
      {"measurement": "Serum concentration", "setting": "900 min", "result": 4, "unit": "CPM x 10^-3"}
    ]}
  ]
}
